# ± gives the standard deviation of the averaged measurements.
# How the values were obtained:
# HL-60 [1] = test: area under dose-response curve (viability, 1 nM-10 uM) (fraction (0-1)); higher = more sensitive; details: 72 h
# Outline: (§1)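 Four-parameter log-logistic fits in drc and PharmacoGx supplied area under the curve where it is given. Underlying viability came from CellTiter-Glo, normalised to DMSO and proteasome-inhibitor wells, with the proteasome inhibitor at 10 μM. HL-60 cells in RPMI 1640 plus 10% FBS had been rescreened against the full library at five tenfold concentrations of 1–10,000 nM, in duplicate on 384-well plates, with DMSO or 100 nM of one of three metabolic inhibitors, for 72 h at 37 °C, 5% CO2.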
# HL-60 [2] = test: cell viability (% survival relative to DMSO control); higher = less cytotoxic; details: 72 h
# Outline: as §1
# [3] = co-treatment: GSK2194069 100 nM
# [4] = co-treatment: pictilisib 100 nM
# [5] = 0.001 µM, co-treatment: AZD3965 100 nM
# [6] = 0.001 µM, co-treatment: DMSO vehicle
# [7] = 0.001 µM, co-treatment: GSK2194069 100 nM
# [8] = 0.001 µM, co-treatment: pictilisib 100 nM
# [9] = 0.01 µM, co-treatment: AZD3965 100 nM
# [10] = 0.01 µM, co-treatment: DMSO vehicle
# [11] = 0.01 µM, co-treatment: GSK2194069 100 nM
# [12] = 0.01 µM, co-treatment: pictilisib 100 nM
# [13] = 0.1 µM, co-treatment: AZD3965 100 nM
# [14] = 0.1 µM, co-treatment: DMSO vehicle
# [15] = 0.1 µM, co-treatment: GSK2194069 100 nM
# [16] = 0.1 µM, co-treatment: pictilisib 100 nM
# [17] = 1 µM, co-treatment: AZD3965 100 nM
# [18] = 1 µM, co-treatment: DMSO vehicle
# [19] = 1 µM, co-treatment: GSK2194069 100 nM
# [20] = 1 µM, co-treatment: pictilisib 100 nM
# [21] = 10 µM, co-treatment: AZD3965 100 nM
# [22] = 10 µM, co-treatment: DMSO vehicle
# [23] = 10 µM, co-treatment: GSK2194069 100 nM
# [24] = 10 µM, co-treatment: pictilisib 100 nM
Structure (SMILES),area under dose-response curve (HL-60 [1]; co-treatment: AZD3965 100 nM),area under dose-response curve (HL-60 [1]; co-treatment: DMSO vehicle),area under dose-response curve (HL-60 [1]; [3]),area under dose-response curve (HL-60 [1]; [4]),cell viability (HL-60 [2]; [5]) [%],cell viability (HL-60 [2]; [6]) [%],cell viability (HL-60 [2]; [7]) [%],cell viability (HL-60 [2]; [8]) [%],cell viability (HL-60 [2]; [9]) [%],cell viability (HL-60 [2]; [10]) [%],cell viability (HL-60 [2]; [11]) [%],cell viability (HL-60 [2]; [12]) [%],cell viability (HL-60 [2]; [13]) [%],cell viability (HL-60 [2]; [14]) [%],cell viability (HL-60 [2]; [15]) [%],cell viability (HL-60 [2]; [16]) [%],cell viability (HL-60 [2]; [17]) [%],cell viability (HL-60 [2]; [18]) [%],cell viability (HL-60 [2]; [19]) [%],cell viability (HL-60 [2]; [20]) [%],cell viability (HL-60 [2]; [21]) [%],cell viability (HL-60 [2]; [22]) [%],cell viability (HL-60 [2]; [23]) [%],cell viability (HL-60 [2]; [24]) [%]
CNC(=C[N+](=O)[O-])NCCSCc1ccc(CN(C)C)o1 [Ranitidine],< 0.0301,< 0.0301,< 0.0301,< 0.0301,103 ± 2.5,104 ± 0.67,94.3 ± 10,95.9 ± 16,102 ± 2.5,87.7 ± 16,89.5 ± 1.4,70.3 ± 19,99.6 ± 4.2,105.91 ± 0.021,108 ± 12,98.5 ± 5.1,107 ± 8.7,106.4 ± 0.2,106 ± 12,110 ± 11,100 ± 3,96.1 ± 5.9,102 ± 4.1,96.9 ± 4.7
C#CCN[C@@H]1CCc2ccccc21 [Rasagiline],< 0.0301,< 0.0301,< 0.0301,< 0.0301,102 ± 5.7,101 ± 1.1,105 ± 1.6,89.6 ± 3.1,96.6 ± 9.6,102 ± 4.3,107 ± 4.2,87.5 ± 12,100 ± 11,102 ± 1.8,100 ± 6.3,103 ± 14,97.1 ± 1.7,100.1 ± 0.11,102 ± 6.4,95.6 ± 7.2,99.9 ± 1.6,95.4 ± 3,99.9 ± 4,102 ± 1.2
NC(CCC(=O)NC(CSCc1ccc(Br)cc1)C(=O)NCC(=O)OC1CCCC1)C(=O)OC1CCCC1 (stereo not given) [S-para-Bromobenzylglutathione cyclopentyl diester],–,< 0.0301,< 0.0301,0.0772,101 ± 4,102 ± 2.7,104.2 ± 1,97.1 ± 9.2,98.9 ± 1.1,91.6 ± 11,85.8 ± 36,87.5 ± 17,102 ± 3.9,106 ± 1.5,110 ± 5.5,113 ± 9.7,91.1 ± 10,97.4 ± 3,95 ± 9.2,76.7 ± 18,77.1 ± 6.2,94.4 ± 3.5,87.2 ± 5.7,55.5 ± 3.4
COc1cc(C2Oc3cc(C4Oc5cc(O)cc(O)c5C(=O)C4O)ccc3OC2CO)ccc1O (stereo not given) [Silibinin],< 0.0301,< 0.0301,< 0.0301,< 0.0301,107 ± 10,100 ± 2.7,107 ± 3.5,103 ± 3.9,99.1 ± 2.1,100.8 ± 0.69,101 ± 0.25,103 ± 3.5,107 ± 14,104 ± 4.8,105 ± 9.5,107 ± 12,102 ± 2.4,102 ± 4.2,105 ± 2.2,106 ± 9.9,102 ± 1.8,97.72 ± 0.59,97.3 ± 5,95.8 ± 2.6
